Experimental data from US20050090551A1, “Therapeutic use of methionine for the treatment or prevention of mucositis” (Board of Trustees of Southern Illinois University, priority 2003, published 2005).
Where a name gives a salt, the structure may show the parent alone.

What was measured:
[1] = test system: CDDP nephrotoxicity; conditions: literature reports; cited from earlier work
[2] = test system: CDDP-induced weight loss; conditions: literature reports; cited from earlier work
[3] = test system: CDDP anti-tumor action; conditions: literature reports; cited from earlier work
[4] = test system: CDDP ototoxicity; conditions: animals; literature reports; cited from earlier work
[5] = test system: male Wistar rats; assay: Auditory Brainstem Testing (ABR) thresholds in CDDP-treated rats; assay type: in vivo, rat
[6] = test system: male Wistar rats; conditions: 75, 150 or 300 mg/kg D-methionine prior to 16 mg/kg CDDP
[7] = test system: male Wistar rats
[8] = test system: male Wistar rats; remark: listed apart in the source
[9] = test system: Human salivary gland epithelial cells; conditions: various concentrations of D-methionine (1.0-0.1 mg/ml) six hours prior to 10 Gy; after 24 Hrs
Source text: One set was untreated as a control and another was irradiated with 10 Gy the following morning.

[10] = test system: mice; conditions: 6 Gy/day for five days
Procedure: The experiment was conducted using a mouse model of radiation-induced lip erythema. Four groups of mice (n=5) were used. The first group (Group A) was an untreated, control group. The second group (Group B) was irradiated with ionizing radiation (6 Gy/day) for 5 days.

[11] = test system: tumor bearing animals; conditions: pre or post treatment, 150 mg/Kg x5, i.p.
[12] = test system: Walker 256 carcinosarcoma in the rat; conditions: Jones and Basinger; cited from earlier work
[13] = test system: patients; conditions: cited from earlier work
[14] = test system: hamsters; conditions: Church et al; cited from earlier work
[15] = test system: NHIK 3025 in vitro human uterine cervix carcinoma in situ cancer cells; conditions: preadministration of methionine, presumably a racemic mixture; cited from earlier work

In the case of `CO[C@@]1(NC(=O)Cc2cccs2)C(=O)N2C(C(=O)O)=C(COC(N)=O)CS[C@@H]21` [cefoxitin], the CDDP nephroprotection [1] is given as “does not provide nephroprotection” and the “protection against CDDP-induced weight loss” value [2] is given as “some protection against CDDP-induced weight loss”.

For `CCOC(=O)[C@@H](N)CS` [Ethyl-L-cysteinate], the CDDP nephroprotection [1] is given as “exacerbate CDDP nephrotoxicity”.

In the case of `CSCC[C@H](N)C(N)=O` [L-methioninamide], the CDDP nephroprotection [1] is listed as “excellent CDDP nephroprotection” and the “effect on CDDP anti-tumor action” value [3] is listed as “impairs CDDP anti-tumor action”.

In the case of `O=S([O-])([O-])=S.[Na+].[Na+]` [STS, sodium thiosulfate], the CDDP nephroprotection [1] is given as “reduces CDDP nephrotoxicity and ototoxicity”, the “effect on CDDP anti-tumor action” value [3] is given as “reduces the latter's tumoricidal action” and the CDDP otoprotection [4] is given as “good CDDP otoprotection”.

In the case of `CSCC[C@@H](N)C(=O)O` [D-methionine], the “animals with complete otoprotection (no significant ABR threshold shift for any stimulus)” value ([5]; 75 mg/kg D-methionine i.p. 30 minutes prior to 16 mg/kg CDDP, 3 days later) is reported as 2/5, the “animals with complete otoprotection (no significant ABR threshold shift for any stimulus)” value ([5]; 150 mg/kg D-methionine i.p. 30 minutes prior to 16 mg/kg CDDP, 3 days later) is reported as 3/5 and the “animals with complete otoprotection for all stimulus conditions” value ([5]; 300 mg/kg D-methionine i.p. 30 minutes prior to 16 mg/kg CDDP, group of 5, 3 days later) is reported as 5. For the same compound, the “post-test ABR thresholds vs treated control group, all stimuli” value ([5]; any level of D-methionine (75, 150, 300 mg/kg) prior to 16 mg/kg CDDP) was “significantly lower ABR thresholds than the treated control group”, the “outer hair cell findings, middle and basal turns” value [6] was “only the treated control group showed significantly different findings from the untreated control group” and the “weight loss vs treated control group” value ([7]; 300 mg/kg D-methionine prior to 16 mg/kg CDDP, 3 days) was “significantly less than that in the treated control group”. For the same compound, the “CDDP-induced weight loss, dose dependence” value ([7]; 75, 150, 300 mg/kg D-methionine prior to 16 mg/kg CDDP) was “diminished as D-methionine dosing increased”, the “alopecia: coat and hair loss vs control group animals” value ([8]; D-methionine prior to 16 mg/kg CDDP) was “significantly less hair loss” and the “animals surviving to the end of the study period” value ([8]; any level of D-methionine prior to 16 mg/kg CDDP) was 15/15. The “neuroprotection: activity and coordination vs surviving treated controls” value ([8]; morning of the third day, D-methionine prior to 16 mg/kg CDDP) was “noticeably more lively, active, and coordinated”, the “apoptosis (cells having an apoptotic phenotype)” value [9] was “about 20%” and the “lip erythema, post-treatment” value ([10]; 150 mg/kg one hour after irradiation) was “prevented the occurrence of lip erythema”. The “lip erythema, pre-treatment” value ([10]; 150 mg/kg six hours prior to irradiation) was “prevented the occurrence of lip erythema”, the “interference with antitumor activity of ionizing radiation” value [11] was “did not interfere with antitumor activity of ionizing radiation” and the CDDP nephroprotection [1] was “highly effective CDDP nephroprotection”. For the same compound, the “effect on CDDP anti-tumor action” value [3] was “without decreasing anti-tumor action” and the “effect on CDDP anti-tumor action” value [12] was “does not inhibit CDDP anti-tumor action”.

For `NCCCNCCSP(=O)(O)O` [WR2721], the CDDP nephroprotection [1] is listed as “excellent CDDP nephroprotection”, the “patients with mild to severe hearing loss” value ([13]; WR2721 prior to CDDP, Glover et al.) is listed as 20 of 36 and the “incidence of significant hearing threshold shift” value ([13]; patients pretreated with WR2721 prior to CDDP, Rubin et al.) is listed as 45%. The “protection from ototoxicity or mortality” value [14] was “no WR2721 protection from ototoxicity or mortality”.

For `CC1(C)S[C@@H]2[C@H](NC(=O)Cc3ccccc3)C(=O)N2[C@H]1C(=O)[O-].[Na+]` [sodium salt of penicillin G, penicillin G], the CDDP nephroprotection [1] is listed as “does not protect against CDDP nephrotoxicity or weight loss” and the “protection against CDDP-induced weight loss” value [2] is listed as “does not protect against CDDP nephrotoxicity or weight loss”.

In the case of `CSc1ncccc1C(=O)O` [2-(methylthio)nicotinic acid], the CDDP nephroprotection [1] is given as “does not provide nephroprotection”.

For `O=C(O)CCCC[C@@H]1SC[C@@H]2NC(=O)N[C@@H]21` [Biotin], the CDDP nephroprotection [1] is listed as “good CDDP nephroprotection” and the “effect on CDDP anti-tumor action” value [3] is listed as “inhibits anti-tumor activity”.

In the case of `CC1=C(C(=O)O)N2C(=O)[C@@H](NC(=O)[C@H](N)c3ccccc3)[C@H]2SC1` [Cephalexin], the “protection against CDDP-induced weight loss” value [2] is given as “protects against CDDP-induced kidney dysfunction and weight loss”.

In the case of `C[C@H](CS)C(=O)N1CCC[C@H]1C(=O)O` [Captropril], the CDDP nephroprotection [1] is listed as “protects against CDDP nephrotoxicity”.

For `Nc1ccc(S(=O)(=O)Nc2nccs2)cc1` [Sulfathiazole], the CDDP nephroprotection [1] is given as “provides protection against CDDP nephrotoxicity” and the “protection against CDDP-induced weight loss” value [2] is given as “not weight loss”.

In the case of `Cc1ncc(C[n+]2csc(CCO)c2C)c(N)n1` [thiamine-HCl], the CDDP nephroprotection [1] is given as “does not protect against cisplatin nephrotoxicity or weight loss” and the “protection against CDDP-induced weight loss” value [2] is given as “does not protect against cisplatin nephrotoxicity or weight loss”.

For `CC(S)C(=O)NCC(=O)O` (stereo not drawn) [N-(2-mercapto-propionyl)glycine], the CDDP nephroprotection [1] is given as “exacerbate CDDP nephrotoxicity”.

For `CSCC[C@H](N)C(=O)O` (racemic) [methionine], the “effect on CDDP cytotoxicity” value [15] is listed as “sensitized”.
